Drawing on ChEMBL document CHEMBL1833862, “Synthesis and biological evaluation of novel 2-arylamino-3-(arylsulfonyl)quinoxalines as PI3Kα inhibitors” (Eur J Med Chem, 2011), this text covers IC50 for 30 molecules.

One test relates to HCT-116. Put plainly: cells. Conditions: Homo sapiens, HCT-116, 72 h.
For the next test, the system named is HL-60. Put plainly: Cytotoxicity against human HL60 cells after 72 hrs by MTT assay. In kind it is functional, cell-based. Conditions: HL-60, 72 h. (Tetrazolium assays rely on reduction of a dye to a coloured formazan, in cell work by metabolically active cells.)
For another test, the system named is A549. Put plainly: Cytotoxicity against human A549 cells after 72 hrs by MTT assay. In kind it is functional, cell-based. The conditions noted are these: A549, 72 h.
A further test deals with PC-3. Put plainly: cells. Conditions: Homo sapiens, PC-3, 72 h.
The next test concerns KB. Put plainly: Cytotoxicity against human KB cells after 72 hrs by MTT assay. In kind it is functional, cell-based.

As usually defined, the IC50 is the concentration needed to halve the response being measured. The low end stands for inhibition by little substance, the high end for a need for much substance.

Description for PC-3: Cytotoxicity against human PC3 cells after 72 hrs by MTT assay

For `COc1ccc(S(=O)(=O)c2nc3ccccc3nc2Nc2cc(OC)c(OC)c(OC)c2)cc1`, the half-inhibitory concentration (IC50) was more than 50 µM in the test with HCT-116, 0.68 µM with HL-60, 5.17 µM in the test on A549 and 7.85 µM in the test on PC-3.
As to `Cc1ccc(S(=O)(=O)c2nc3ccccc3nc2Nc2cccc(N)c2)cc1`, the concentration for half-maximal inhibition (IC50) amounted to 2.39 µM in the test with HCT-116; 1.08 µM in the test on HL-60; 1.95 µM with A549; 10.6 µM in the test on KB; 2 µM in the test with PC-3.
As for `COc1ccc(Nc2nc3ccccc3nc2S(=O)(=O)c2ccc(Br)cc2)cc1`, the half-inhibitory concentration (IC50) with HCT-116 stood at 3.4 µM; with HL-60 it was 1.19 µM; in the test with A549, 3.34 µM; in the test on PC-3, 1.11 µM.
Turning to `COc1ccc(S(=O)(=O)c2nc3ccccc3nc2Nc2cccc(N)c2)cc1`, the IC50 amounted to 3.71 µM in the test with HCT-116; 1.49 µM in the test on HL-60; 0.34 µM with A549; 4.96 µM with KB; 8.6 µM with PC-3.
For `O=S(=O)(c1ccccc1)c1nc2ccccc2nc1Nc1ccc(F)cc1`, in that order: 5.19 µM, 1.01 µM, more than 50 µM, more than 50 µM and 14.2 µM.
Take `COc1ccc(Nc2nc3ccccc3nc2S(=O)(=O)c2ccccc2)cc1`: the IC50 in the test on HCT-116 turned out to be 2.42 µM; with HL-60, 0.64 µM; in the test with A549, 11.9 µM; in the test with PC-3 it was 1.51 µM.
On to `Cc1ccc(S(=O)(=O)c2nc3ccccc3nc2Nc2ccc(F)cc2)cc1`, for which the half-inhibitory concentration (IC50) stood at 10.5 µM in the test on HCT-116; 5.1 µM in the test with HL-60; 39.2 µM in the test with A549; 8.95 µM in the test with KB; 13.1 µM with PC-3.
For `COc1ccc(S(=O)(=O)c2nc3ccccc3nc2Nc2ccc(F)cc2)cc1`, in that order: 2.11 µM, 0.61 µM, 1.24 µM, 2.59 µM and 2.2 µM.
In the same order, the values of `O=S(=O)(c1ccc(Br)cc1)c1nc2ccccc2nc1Nc1ccc(C(F)(F)F)cc1` are 2.61 µM, 0.28 µM, more than 50 µM, more than 50 µM and 4.15 µM.
For `COc1ccc(S(=O)(=O)c2nc3ccccc3nc2Nc2ccc(C(F)(F)F)cc2)cc1`, in that order: 0.11 µM, 0.22 µM, 4.81 µM, 0.89 µM and 0.33 µM.
For the molecule `COc1cc(Nc2nc3ccccc3nc2S(=O)(=O)c2ccc(Br)cc2)cc(OC)c1OC`, the IC50 in the test with HCT-116 was 13 µM; in the test with HL-60, 1.02 µM; in the test on A549 it was 6.11 µM; in the test with PC-3, 19.8 µM.
Regarding `O=c1cc(N2CCOCC2)oc2c(-c3ccccc3)cccc12` [LY-294002], the IC50 in the test on HCT-116 stood at 56 µM; in the test on HL-60, 9.94 µM; with A549 it was 89.7 µM; in the test with KB, 44.8 µM; with PC-3, 61.4 µM.
On to `COc1cc(Nc2nc3ccccc3nc2S(=O)(=O)c2ccc(F)cc2)cc(OC)c1OC`, for which the IC50 is 3.11 µM with HCT-116, 4.79 µM in the test with HL-60, more than 50 µM with A549 and more than 50 µM in the test on PC-3.
`COc1ccc(Nc2nc3ccccc3nc2S(=O)(=O)c2ccc(F)cc2)cc1`: the 50% inhibitory concentration (IC50) turned out to be 3.01 µM in the test on HCT-116, 1.2 µM in the test with HL-60, 4.84 µM in the test with A549 and 4.33 µM with PC-3.
For `COc1ccc(Nc2nc3ccccc3nc2S(=O)(=O)c2ccc(OC)cc2)cc1`, in that order: 29.1 µM, 1.19 µM, 8.26 µM and 8.71 µM.
In the same order, the values of `Nc1ccc(Nc2nc3ccccc3nc2S(=O)(=O)c2ccc(F)cc2)cc1` are 10.1 µM, 1.62 µM, 12.7 µM and 2.05 µM.
Regarding `O=S(=O)(c1ccc(Br)cc1)c1nc2ccccc2nc1Nc1ccc(Cl)cc1`, the half-inhibitory concentration (IC50) with HCT-116 is 10.6 µM; in the test on HL-60, 16.4 µM; in the test on A549, 61.4 µM; with KB, 11.6 µM; in the test with PC-3 it was 7.46 µM.
For `COc1ccc(S(=O)(=O)c2nc3ccccc3nc2Nc2ccc(N)cc2)cc1`, in that order: 6.3 µM, 0.71 µM, 2.99 µM, 17.8 µM and 9.64 µM.
In the case of `COc1ccc(S(=O)(=O)c2nc3ccccc3nc2Nc2cc(OC)cc(OC)c2)cc1`, the IC50 in the test on HCT-116 stood at 13.4 µM; with HL-60, 1.71 µM; in the test with A549, 12.7 µM; in the test with PC-3 it was 6.22 µM.
For the molecule `O=S(=O)(c1ccccc1)c1nc2ccccc2nc1Nc1ccccc1`, the half-maximal inhibitory concentration (IC50) came to 1.63 µM in the test with HCT-116; 0.14 µM in the test on HL-60; 26.3 µM in the test on A549; 22.6 µM in the test on KB; 0.59 µM in the test on PC-3.
As to `O=S(=O)(c1ccccc1)c1nc2ccccc2nc1Nc1ccc(C(F)(F)F)cc1`, the IC50 in the test with HCT-116 was 2.09 µM; in the test with HL-60 it was 0.3 µM; in the test with A549, more than 50 µM; in the test on KB, more than 50 µM; with PC-3, 3.55 µM.
On to `Cc1ccc(S(=O)(=O)c2nc3ccccc3nc2Nc2ccc(C(F)(F)F)cc2)cc1`, for which the half-maximal inhibitory concentration (IC50) was 0.95 µM with HCT-116; 0.27 µM in the test with HL-60; 13.5 µM in the test with A549; 10.3 µM in the test with KB; 2.54 µM in the test with PC-3.
In the same order, the values of `COc1ccc(S(=O)(=O)c2nc3ccccc3nc2Nc2ccc(Cl)cc2)cc1` are 26.5 µM, 19.6 µM, 87.3 µM, 49.8 µM and 31.8 µM.
Consider `O=S(=O)(c1ccc(Br)cc1)c1nc2ccccc2nc1Nc1ccc(F)cc1`, for which the IC50 came to 1.67 µM in the test on HCT-116; 0.26 µM with HL-60; 4.36 µM in the test on A549; 2.28 µM with KB; 9.16 µM with PC-3.
`COc1ccc(Nc2nc3ccccc3nc2S(=O)(=O)c2ccc(C)cc2)cc1`: the IC50 in the test on HCT-116 is more than 50 µM; with HL-60, 2.79 µM; with A549 it was more than 50 µM; with PC-3, more than 50 µM.
With `COc1cc(Nc2nc3ccccc3nc2S(=O)(=O)c2ccccc2)cc(OC)c1OC`, the IC50 with HCT-116 is more than 50 µM; with HL-60, 1.77 µM; with A549, 9.66 µM; in the test with PC-3 it was 29.1 µM.
Take `COc1cc(Nc2nc3ccccc3nc2S(=O)(=O)c2ccc(F)cc2)cc(OC)c1`: the IC50 in the test with HCT-116 came to 3.93 µM; in the test with HL-60, 2.36 µM; in the test on A549 it was 5.45 µM; in the test with PC-3, 4.53 µM.
In the same order, the values of `COc1cc(Nc2nc3ccccc3nc2S(=O)(=O)c2ccc(C)cc2)cc(OC)c1OC` are 10.8 µM, 0.32 µM, 5.61 µM and 4.85 µM.
In the same order, the values of `Nc1cccc(Nc2nc3ccccc3nc2S(=O)(=O)c2ccc(F)cc2)c1` are 6.79 µM, 4.04 µM, 6.84 µM and 1.98 µM.
Turning to `COc1cc(Nc2nc3ccccc3nc2S(=O)(=O)c2ccc(Br)cc2)cc(OC)c1`, the concentration for half-maximal inhibition (IC50) was more than 50 µM in the test with HCT-116, 2.54 µM in the test on HL-60, 15.8 µM with A549 and 18.2 µM in the test on PC-3.
